In data set [1] the test system is goosegrass (Eleusine indica). Description: Test A preemergence, goosegrass. The class given is in vivo. The settings on record: 0 to 100 scale, 10 days. From the text:
(§1) Seeds of plant species selected from barnyardgrass (Echinochloa crus-galli), blackgrass (Alopecurus myosuroides), corn (Zea mays), foxtail, giant (giant foxtail, Setaria faberi), goosegrass (Eleusine indica), kochia (Bassia scoparia), oat, wild (wild oat, Avena fatua), pigweed, palmer (palmer amaranth, Amaranthus palmeri), pigweed, redroot (redroot pigweed, Amaranthus retroflexus), ragweed (common ragweed, Ambrosia artemisiifolia), ryegrass, Italian (Italian ryegrass, Lolium multiflorum), soybean (Glycine max), and wheat (Triticum aestivum) were planted into a blend of loam soil and sand and treated preemergence with a directed soil spray using test chemicals formulated in a non-phytotoxic solvent mixture which included a surfactant.
(§2) At the same time, plants selected from these crop and weed species and also galium (catchweed bedstraw, Galium aparine) and horseweed (Erigeron canadensis) were planted in pots containing the same blend of loam soil and sand and treated with postemergence applications of test chemicals formulated in the same manner. Plants ranged in height from 2 to 10 cm and were in the one- to two-leaf stage for the postemergence treatment. Treated plants and untreated controls were maintained in a greenhouse for 10 days, after which time all treated plants were compared to untreated controls and visually evaluated for injury. Plant response ratings, summarized in Table A, are based on a 0 to 100 scale where 0 is no effect and 100 is complete control. A dash (-) response means no test result.

The test system of data set [2] is ragweed (common ragweed, Ambrosia artemisiifolia). Description: Test A preemergence, ragweed. The class given is in vivo. To be noted: pre-emergence, 240 h, 0 to 100 scale, 10 days, read-out: Plant response rating, Ragweed; for pest or weed control at 31 g/ha: 31 g ai/ha; for pest or weed control at 125 g/ha: 125 g ai/ha.
Excerpt: as §1, §2

Data set [3] relates to wheat (Triticum aestivum). As to the kind of experiment: Test A preemergence, wheat. The settings on record: 0 to 100 scale, 10 days. The class given is in vivo.
Excerpt: as §1, §2

Data set [4] has as its system blackgrass (Alopecurus myosuroides). As to the kind of experiment: Test A postemergence, blackgrass. The class given is in vivo. The settings on record: 0 to 100 scale, 10 days.
Excerpt: as §1, §2

The next data set deals with corn (Zea mays). Description: Test A postemergence, corn. The class given is in vivo. To be noted: post-emergence, 240 h, 0 to 100 scale, 10 days; for Corn plant response rating (crop injury, 0 = no effect, 100 = complete kill) at 31 g/ha: 31 g ai/ha; for Corn plant response rating (crop injury, 0 = no effect, 100 = complete kill) at 125 g/ha: 125 g ai/ha.
Excerpt: as §1, §2

Data set [5] concerns goosegrass (Eleusine indica). As to the kind of experiment: Test A postemergence, goosegrass. To be noted: 0 to 100 scale, 10 days. The data set is classed as in vivo.
Excerpt: as §1, §2

Data set [6] deals with oat, wild (wild oat, Avena fatua). Description: Test A postemergence, wild oat. The class given is in vivo. The settings on record: 0 to 100 scale, 10 days.
Excerpt: as §1, §2

Data set [7] relates to wheat (Triticum aestivum). As to the kind of experiment: Test A postemergence, wheat. The settings on record: post-emergence, 240 h, 0 to 100 scale, 10 days, read-out: Plant response rating, Wheat; for plant injury at 31 g/ha: 31 g ai/ha; for plant injury at 125 g/ha: 125 g ai/ha. The data set is classed as in vivo.
Excerpt: as §1, §2

In data set [8] the test system is barnyardgrass (Echinochloa crusgalli). As to the kind of experiment: Test B flooded paddy test, barnyardgrass. To be noted: Echinochloa crus-galli; 250 g ai/ha, Flood; scale of 0 to 100 where 0 is no effect and 100 is complete control; visually evaluated after 10 to 14 days; read-out: Plant response rating, Barnyardgrass. The class given is in vivo. The method, then:
(§3) Plant species in the flooded paddy test selected from barnyardgrass (Echinochloa crusgalli), ducksalad (Heteranthera limosa), rice (Oryza sativa), and sedge, umbrella (small-flower umbrella sedge, Cyperus difformis) were grown to the 2-leaf stage for testing. At time of treatment, test pots were flooded to 3 cm above the soil surface, treated by application of test compounds directly to the paddy water, and then maintained at that water depth for the duration of the test. Treated plants and controls were maintained in a greenhouse for 10 to 14 days, after which time all species were compared to controls and visually evaluated. Plant response ratings, summarized in Table B, are based on a scale of 0 to 100 where 0 is no effect and 100 is complete control. A dash (-) response means no test result.

Data set [9] relates to ducksalad (Heteranthera limosa). As to the kind of experiment: Test B flooded paddy test, ducksalad. The settings on record: 250 g ai/ha, Flood, scale of 0 to 100 where 0 is no effect and 100 is complete control, visually evaluated after 10 to 14 days, read-out: Plant response rating, Ducksalad. The class given is in vivo. How it is done:
as §3

A word on the melting point: it is the temperature of the solid-liquid transition. With `Cc1cc(C)c(N2CCC(OC3CC3)C2=O)cc1NS(=O)(=O)C(F)(F)F` (stereo not drawn) [Compound 3, N-[5-[3-(cyclopropyloxy)-2-oxo-1-pyrrolidinyl]-2,4-dimethylphenyl]-1,1,1-trifluoromethanesulfonamide], the melting point was 171 to 174 °C. The “Plant response rating, Goosegrass” value in data set [1] (31 g ai/ha) was determined as 70. The “Plant response rating, Goosegrass” value in [1] (125 g ai/ha) came out at 100. In [2], the pest or weed control at 31 g/ha amounted to 90% and the pest or weed control at 125 g/ha stood at 100%. Moreover, the “Plant response rating, Wheat” value in data set [3] (31 g ai/ha) was found to be 100. Also, in data set [3] (125 g ai/ha), the “Plant response rating, Wheat” value was 100. For the same compound, the “Plant response rating, Blackgrass” value in data set [4] (31 g ai/ha) amounted to 40. In data set [4] (125 g ai/ha), the “Plant response rating, Blackgrass” value was determined as 70. Also, in the data set on corn (Zea mays), the Corn plant response rating (crop injury, 0 = no effect, 100 = complete kill) at 31 g/ha amounted to 90% and the Corn plant response rating (crop injury, 0 = no effect, 100 = complete kill) at 125 g/ha worked out at 90%. The “Plant response rating, Goosegrass” value in data set [5] (31 g ai/ha) was 80. Moreover, in data set [5] (125 g ai/ha), the “Plant response rating, Goosegrass” value is 90. Further, the “Plant response rating, Oat, Wild” value in [6] (31 g ai/ha) was 40. In addition, in data set [6] (125 g ai/ha), the “Plant response rating, Oat, Wild” value was 80. In [7], the plant injury at 31 g/ha was 80% and the plant injury at 125 g/ha turned out to be 80%. Moreover, the pest or weed control at 250 g/ha in data set [8] came out at 90%. Further, the pest or weed control at 250 g/ha in data set [9] came to 98%.

As for `Cc1cc(C)c(N2CCC(OC3CCC3)C2=O)cc1NS(=O)(=O)C(F)(F)F` (stereo not drawn) [Compound 4, N-[5-[3-(cyclobutyloxy)-2-oxo-1-pyrrolidinyl]-2,4-dimethylphenyl]-1,1,1-trifluoromethanesulfonamide], the melting point lay within 166 to 169 °C. For the same compound, the “Plant response rating, Goosegrass” value in data set [1] (31 g ai/ha) is 100. Further, in data set [1] (125 g ai/ha), the “Plant response rating, Goosegrass” value stood at 100. Also, in [2], the pest or weed control at 31 g/ha turned out to be 90% and the pest or weed control at 125 g/ha came out at 100%. The “Plant response rating, Wheat” value in data set [3] (31 g ai/ha) stood at 70. Besides, the “Plant response rating, Wheat” value in data set [3] (125 g ai/ha) is 100. Besides, in the data set on corn (Zea mays), the Corn plant response rating (crop injury, 0 = no effect, 100 = complete kill) at 31 g/ha amounted to 90% and the Corn plant response rating (crop injury, 0 = no effect, 100 = complete kill) at 125 g/ha turned out to be 0%. In addition, the “Plant response rating, Goosegrass” value in [5] (31 g ai/ha) was found to be 70. Besides, in data set [5] (125 g ai/ha), the “Plant response rating, Goosegrass” value is given as 90. Also, in data set [6] (31 g ai/ha), the “Plant response rating, Oat, Wild” value is reported as 30. Also, the “Plant response rating, Oat, Wild” value in data set [6] (125 g ai/ha) was found to be 60. Also, in data set [7], the plant injury at 31 g/ha was determined as 50% and the plant injury at 125 g/ha was 50%. In addition, the pest or weed control at 250 g/ha in [8] stood at 45%. For the same compound, in data set [9], the pest or weed control at 250 g/ha is 100%.
